pIC50: −log10 of the molar value.
Legend:
[1] = biological target: T1, TYRO3 (Homo sapiens, UniProt Q06418); test: TR-FRET kinase activity assay, TYRO3; type: biochemical; conditions: ATP at Km, 60 minutes
T1 sequence (Q06418 41-890): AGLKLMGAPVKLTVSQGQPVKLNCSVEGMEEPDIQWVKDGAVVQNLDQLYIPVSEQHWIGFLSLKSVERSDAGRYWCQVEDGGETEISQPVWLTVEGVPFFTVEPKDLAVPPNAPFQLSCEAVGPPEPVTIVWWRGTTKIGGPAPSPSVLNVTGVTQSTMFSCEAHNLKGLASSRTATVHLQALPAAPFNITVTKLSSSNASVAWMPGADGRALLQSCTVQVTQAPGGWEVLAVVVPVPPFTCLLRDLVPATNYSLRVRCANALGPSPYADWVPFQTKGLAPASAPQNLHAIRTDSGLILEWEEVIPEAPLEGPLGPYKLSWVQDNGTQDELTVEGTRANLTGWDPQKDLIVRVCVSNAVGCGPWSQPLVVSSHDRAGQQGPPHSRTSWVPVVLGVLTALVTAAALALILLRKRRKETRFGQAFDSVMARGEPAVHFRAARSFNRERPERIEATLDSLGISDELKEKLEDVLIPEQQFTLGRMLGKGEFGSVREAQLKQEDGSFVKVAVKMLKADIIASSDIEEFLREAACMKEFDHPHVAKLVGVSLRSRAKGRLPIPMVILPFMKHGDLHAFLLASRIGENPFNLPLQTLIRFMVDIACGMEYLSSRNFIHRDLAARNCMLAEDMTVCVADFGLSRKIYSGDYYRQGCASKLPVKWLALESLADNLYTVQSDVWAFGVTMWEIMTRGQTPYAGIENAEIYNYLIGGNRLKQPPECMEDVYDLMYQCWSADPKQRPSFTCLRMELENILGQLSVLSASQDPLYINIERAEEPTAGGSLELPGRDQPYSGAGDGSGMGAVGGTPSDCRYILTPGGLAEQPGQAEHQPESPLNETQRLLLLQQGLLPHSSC
In short: (§1)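 IC50 reflects the drop in TR-FRET between Eu anti-phosphotyrosine antibody and labelled peptide after a 60-minute room-temperature reaction. Buffer was 50 mM HEPES pH 7.5 with 10 mM MgCl2, 1 mM EGTA, 0.01% Brij 35 and 1 mM DTT, with ATP at Km per enzyme and EDTA quench.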

[2] = biological target: T2, MERTK (Homo sapiens, UniProt Q12866); test: TR-FRET kinase activity assay, MERTK; type: biochemical; conditions: for pIC50: TR-FRET activity assay, ATP at Km, 60 minutes, read-out: Mer IC50; for FLT3/Mer ratio (FLT3 IC50/Mer IC50): ratio calculated as FLT3 IC50/Mer IC50
T2 sequence (Q12866 21-999): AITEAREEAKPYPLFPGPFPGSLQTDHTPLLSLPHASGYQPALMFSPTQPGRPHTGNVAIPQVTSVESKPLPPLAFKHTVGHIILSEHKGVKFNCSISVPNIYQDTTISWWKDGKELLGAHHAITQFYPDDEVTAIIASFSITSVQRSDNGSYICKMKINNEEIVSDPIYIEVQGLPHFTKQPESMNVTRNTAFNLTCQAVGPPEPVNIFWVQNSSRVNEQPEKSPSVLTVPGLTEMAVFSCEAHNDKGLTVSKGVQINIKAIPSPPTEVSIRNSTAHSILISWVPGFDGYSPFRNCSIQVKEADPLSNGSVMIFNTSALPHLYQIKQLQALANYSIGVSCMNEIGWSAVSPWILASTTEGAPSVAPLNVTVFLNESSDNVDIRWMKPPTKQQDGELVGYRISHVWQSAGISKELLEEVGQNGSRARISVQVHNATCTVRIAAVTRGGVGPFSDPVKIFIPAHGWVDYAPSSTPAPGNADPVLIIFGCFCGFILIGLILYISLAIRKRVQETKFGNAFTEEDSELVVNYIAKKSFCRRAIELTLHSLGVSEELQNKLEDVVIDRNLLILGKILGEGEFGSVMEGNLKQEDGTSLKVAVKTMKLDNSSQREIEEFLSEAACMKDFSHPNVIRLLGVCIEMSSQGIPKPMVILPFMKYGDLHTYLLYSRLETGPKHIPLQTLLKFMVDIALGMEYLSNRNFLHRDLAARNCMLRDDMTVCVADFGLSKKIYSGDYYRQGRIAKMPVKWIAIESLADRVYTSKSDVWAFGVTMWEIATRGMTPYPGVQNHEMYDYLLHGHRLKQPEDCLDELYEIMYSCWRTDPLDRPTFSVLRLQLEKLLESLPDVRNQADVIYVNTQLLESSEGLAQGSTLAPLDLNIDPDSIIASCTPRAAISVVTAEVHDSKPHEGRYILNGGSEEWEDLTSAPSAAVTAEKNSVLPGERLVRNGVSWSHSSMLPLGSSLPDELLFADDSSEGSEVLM
In short: as §1

SMILES	pIC50 [1]	pIC50 [2]	FLT3/Mer ratio (FLT3 IC50/Mer IC50) [2]
COCC(C)Nc1ncc2c(-c3ccnc(N4CCOC(C(C)(C)O)C4)c3)cc(C3CCC(O)CC3)n2n1 (stereo not drawn) [Compound 559]	≥ 7.00	≥ 7.00	+++ (“+++” represents a ratio of >100)
COC[C@H](C)Nc1ncc2c(-c3cnn(C(C)(C)C(=O)N4CCOCC4)c3)cc([C@H]3CC[C@](C)(O)CC3)n2n1 [Compound 560]	≥ 7.00	≥ 7.00	+++ (“+++” represents a ratio of >100)
COC[C@H](C)Nc1ncc2c(-c3cnn(C(C)(C)C(=O)N4CCOCC4)c3)cc([C@H]3CC[C@@](C)(O)CC3)n2n1 [Compound 561]	≥ 7.00	≥ 7.00	+++ (“+++” represents a ratio of >100)
COCC(C)Nc1ncc2c(-c3cccc(N4CCOCC4)c3)cc(C3CCC(O)CC3)n2n1 (stereo not drawn) [Compound 562]	≥ 7.00	≥ 7.00	+++ (“+++” represents a ratio of >100)
COC[C@H](C)Nc1ncc2c(-c3cnn(C(C)(C)c4nnc(C5CC5)o4)c3)cc([C@H]3CC[C@H](O)CC3)n2n1 [Compound 563]	≥ 7.00	≥ 7.00	+++ (“+++” represents a ratio of >100)
COC[C@H](C)Nc1ncc2c(-c3cnn(C4COC4)c3)cc([C@H]3CC[C@@H](O)CC3)n2n1 [Compound 564]	≥ 7.00	≥ 7.00	++ (“++” represents a ratio of between 10 and 100)
COC[C@H](C)Nc1ncc2c(-c3ccc(CN4CCN(C)CC4)nc3)cc([C@H]3CC[C@H](O)CC3)n2n1 [Compound 565]	≥ 7.00	≥ 7.00	+++ (“+++” represents a ratio of >100)
COC[C@H](C)Nc1ncc2c(-c3ccnc(C4COC4)c3)cc([C@H]3CC[C@H](O)CC3)n2n1 [Compound 566]	≥ 7.00	≥ 7.00	+++ (“+++” represents a ratio of >100)
CCS(=O)(=O)N1CC(CC#N)(n2cc(-c3cc([C@H]4CC[C@H](O)CC4)n4nc(N[C@@H](C)COC)ncc34)cn2)C1 [Compound 567]	≥ 7.00	≥ 7.00	+++ (“+++” represents a ratio of >100)
CC[C@]1(O)CC[C@H](c2cc(-c3ccnc(N4CCOCC4)c3)c3cnc(N[C@@H](C)COC)nn32)CC1 [Compound 568]	≥ 7.00	≥ 7.00	+++ (“+++” represents a ratio of >100)
COC[C@H](C)Nc1ncc2c(-c3cnn(C4COC4)c3)cc([C@@H]3CC[C@@H](O)C(C)(C)C3)n2n1 [Compound 570]	≥ 7.00	≥ 7.00	++ (“++” represents a ratio of between 10 and 100)
COC[C@H](C)Nc1ncc2c(-c3cnn(C4COC4)c3)cc([C@@H]3CC[C@H](O)C(C)(C)C3)n2n1 [Compound 571]	≥ 7.00	≥ 7.00	++ (“++” represents a ratio of between 10 and 100)
COC[C@H](C)Nc1ncc2c(-c3cncc([S@](C)(=N)=O)c3)cc([C@H]3CC[C@@H](O)CC3)n2n1 [Compound 572]	≥ 7.00	≥ 7.00	+++ (“+++” represents a ratio of >100)
COC[C@H](C)Nc1ncc2c(-c3cncc([S@@](C)(=N)=O)c3)cc([C@H]3CC[C@H](O)CC3)n2n1 [Compound 573]	≥ 7.00	≥ 7.00	+++ (“+++” represents a ratio of >100)
COC[C@H](C)Nc1ncc2c(-c3ccnc([S@@](C)(=N)=O)c3)cc([C@H]3CC[C@H](O)CC3)n2n1 [Compound 574]	≥ 7.00	≥ 7.00	+++ (“+++” represents a ratio of >100)
COC[C@H](C)Nc1ncc2c(-c3ccnc([S@](C)(=N)=O)c3)cc([C@H]3CC[C@H](O)CC3)n2n1 [Compound 575]	≥ 7.00	≥ 7.00	+++ (“+++” represents a ratio of >100)
COC[C@H](C)Nc1ncc2c([C@H]3CC[C@H](C(C)=O)CC3)cc([C@H]3CC[C@H](O)CC3)n2n1 [Compound 576]	≥ 7.00	≥ 7.00	+++ (“+++” represents a ratio of >100)
COC[C@H](C)Nc1ncc2c([C@H]3CC[C@@H](C(=O)N4CCC(F)(F)CC4)CC3)cc([C@H]3CC[C@H](O)CC3)n2n1 [Compound 577]	≥ 7.00	≥ 7.00	+++ (“+++” represents a ratio of >100)
COC[C@H](C)Nc1ncc2c([C@H]3CC[C@H](C(=O)N4CC5(COC5)C4)CC3)cc([C@H]3CC[C@H](O)CC3)n2n1 [Compound 578]	≥ 7.00	≥ 7.00	+++ (“+++” represents a ratio of >100)
COC[C@H](C)Nc1ncc2c([C@H]3CC[C@@H](C(=O)N4CC5(COC5)C4)CC3)cc([C@H]3CC[C@H](O)CC3)n2n1 [Compound 579]	≥ 7.00	≥ 7.00	+++ (“+++” represents a ratio of >100)
C[C@@H](CC(F)(F)F)Nc1ncc2c(-c3ccnc([S@](C)(=N)=O)c3)cc([C@H]3CC[C@H](O)CC3)n2n1 [Compound 580]	≥ 7.00	≥ 7.00	+++ (“+++” represents a ratio of >100)
C[C@@H](CC(F)(F)F)Nc1ncc2c(-c3ccnc([S@@](C)(=N)=O)c3)cc([C@H]3CC[C@H](O)CC3)n2n1 [Compound 581]	≥ 7.00	≥ 7.00	+++ (“+++” represents a ratio of >100)
C[C@@H](CC(F)(F)F)Nc1ncc2c(-c3cncc([S@](C)(=N)=O)c3)cc([C@H]3CC[C@H](O)CC3)n2n1 [Compound 582]	≥ 7.00	≥ 7.00	+++ (“+++” represents a ratio of >100)
C[C@@H](CC(F)(F)F)Nc1ncc2c(-c3cncc([S@@](C)(=N)=O)c3)cc([C@H]3CC[C@H](O)CC3)n2n1 [Compound 583]	≥ 7.00	≥ 7.00	+++ (“+++” represents a ratio of >100)

From patent US11040981B2, “Pyrrolotriazine compounds and methods of inhibiting TAM kinases” (Syros Pharmaceuticals, Inc., priority 2017, dated 2021)
